Data from patent US9237747B2, “Herbicidal compositions comprising 4-amino-3-chloro-5-fluoro-6-(4-chloro-2-fluoro-3-methoxyphenyl) pyridine-2-carboxylic acid or a derivative thereof and insecticides” (priority 2013, dated 2016).

How the values were obtained:
CYPRO = test: In-water applied weed control, transplanted paddy rice (greenhouse); type: in vivo, Cyperus rotundus
Protocol: (§1) Weed seeds or nutlets of the desired test plant species were planted in puddled soil (mud) prepared by mixing a shredded, non-sterilized mineral soil (50.5 percent silt, 25.5 percent clay, and 24 percent sand, with a pH of about 7.6 and an organic matter content of about 2.9 percent) and water at a 1:1 volumetric ratio. The prepared mud was dispensed in 365 mL aliquots into 16-ounce (oz.) non-perforated plastic pots with a surface area of 86.59 square centimeters (cm^2) leaving a headspace of 3 centimeters (cm) in each pot. Rice seeds were planted in Sun Gro MetroMix® 306 planting mixture, which typically has a pH of 6.0 to 6.8 and an organic matter content of about 30 percent, in plastic plug trays. Seedlings at the second or third leaf stage of growth were transplanted into 860 mL of mud contained in 32-oz. non-perforated plastic pots with a surface area of 86.59 cm^2 4 days prior to herbicide application. The paddy was created by filling the headspace of the pots with 2.5 to 3 cm of water. When required to ensure good germination and healthy plants, a fungicide treatment and/or other chemical or physical treatment was applied. The plants were grown for 4-22 days in a greenhouse with an approximate 14 h photoperiod which was maintained at about 29° C. during the day and about 26° C. during the night. Nutrients were added as Osmocote® (17:6:10, N:P:K+minor nutrients) at 2 grams (g) per 16-oz. pot and 4 g per 32-oz. pot. Water was added on a regular basis to maintain the paddy flood, and supplemental lighting was provided with overhead metal halide 1000-Watt lamps as necessary. The plants were employed for testing when they reached the first through fourth true leaf stage.
Treatments consisted of the acid or esters of 4-amino-3-chloro-5-fluoro-6-(4-chloro-2-fluoro-3-methoxy-phenyl)pyridine-2-carboxylic acid (compound A) each formulated as an SC (suspension concentrate) and various herbicidal components alone and in combination. Forms of compound A were applied on an acid equivalent basis.
Other […] components were applied on an active ingredient basis and consisted of etofenprox (technical grade material) and sulfoxaflor formulated as Sulfoxaflor WG.
(§2) Treatment requirements for each compound or herbicidal component were calculated based upon the rates being tested, the concentration of active ingredient or acid equivalent in the formulation, an application volume of 2 mL per component per pot, and an application area of 86.59 cm^2 per pot.
For formulated compounds, a measured amount was placed in an individual 100 or 200 mL glass vial and was dissolved in a volume of 1.25% (v/v) AgriDex® crop oil concentrate to obtain application solutions.
For technical grade compounds, a weighed amount was placed in an individual 100 to 200 mL glass vial and was dissolved in a volume of acetone to obtain concentrated stock solutions.
Applications were made by injecting with a pipetter appropriate amounts of the application solutions, individually and sequentially, into the aqueous layer of the paddy. Control plants were treated in the same manner with the solvent blank. Applications were made so that all treated plant material received the same concentrations of acetone and crop oil concentrate.
The treated plants and control plants were placed in a greenhouse as described above and water was added as needed to maintain a paddy flood. After approximately 3 weeks the condition of the test plants as compared with that of the untreated plants was determined visually and scored on a scale of 0 to 100 percent where 0 corresponds to no injury or growth inhibition and 100 corresponds to complete kill.
Colby's equation was used to determine the herbicidal effects expected from the mixtures (Colby, S. R. Calculation of the synergistic and antagonistic response of herbicide combinations. Weeds 1967, 15, 20-22.). […]

LEFCH = test: as above; type: in vivo, Leptochloa chinensis
Protocol: as §1, with “stage. […]” for “stage.”
as §2
For formulated compounds, a measured amount was placed in an individual 100 or 200 mL glass vial and was dissolved in a volume of 1.25% (v/v) AgriDex® crop oil concentrate to obtain application solutions. […]
The treated plants and control plants were placed in a greenhouse as described above and water was added as needed to maintain a paddy flood. After approximately 3 weeks the condition of the test plants as compared with that of the untreated plants was determined visually and scored on a scale of 0 to 100 percent where 0 corresponds to no injury or growth inhibition and 100 corresponds to complete kill. […]

| Compound | Visual Weed Control (%) - 19 DAA CYPRO Obs (CYPRO; 8 g ae/ha alone) [%] | Visual Weed Control (%) - 19 DAA CYPRO Obs (CYPRO; 16 g ae/ha alone) [%] | Visual Weed Control (%) - 19 DAA CYPRO Obs (CYPRO; 32 g ae/ha alone) [%] | Visual Weed Control (%) - 21 DAA CYPRO Obs (CYPRO; 21 DAA, 8 g ae/ha alone) [%] | Visual Weed Control (%) - 19 DAA LEFCH Obs (LEFCH; 8 g ae/ha alone) [%] | Visual Weed Control (%) - 19 DAA LEFCH Obs (LEFCH; 16 g ae/ha alone) [%] | Visual Weed Control (%) - 19 DAA LEFCH Obs (LEFCH; 32 g ae/ha alone) [%] | Visual Weed Control (%) - 19 DAA CYPRO Obs (CYPRO; 37.5 g ai/ha alone) [%] | Visual Weed Control (%) - 19 DAA CYPRO Obs (CYPRO; 75 g ai/ha alone) [%] | Visual Weed Control (%) - 19 DAA CYPRO Obs (CYPRO; 150 g ai/ha alone) [%] | Visual Weed Control (%) - 19 DAA LEFCH Obs (LEFCH; 150 g ai/ha alone) [%] |
| --- | --- | --- | --- | --- | --- | --- | --- | --- | --- | --- | --- |
| COc1c(Cl)ccc(-c2nc(C(=O)OCc3ccccc3)c(Cl)c(N)c2F)c1F [Compound A Benzyl Ester] | 20 | 88 | 87 | 40 | 3 | 8 | 10 |  |  |  |  |
| CC(c1ccc(C(F)(F)F)nc1)S(C)(=O)=NC#N (centres unmarked) [Sulfoxaflor, N-[methyloxido[1-[6-(trifluoromethyl)-3-pyridinyl]ethyl]-λ^4-sulfanylidene]cyanamide] |  |  |  |  |  |  |  | 0 | 0 | 0 | 0 |
